Patent US4169097A, “2,3-Dihydro-4H-1-benzopyran-4-one O-carbamoyl oximes” (priority 1978, dated 1979)

Tested on: gastric acid secretion
Experiment: modified standard pylorus-ligated secretory testing procedure in the rat
Format: in vivo, Sprague-Dawley rats
Details: 50-100 mg/kg p.o., 1 hr. prior to ligation, 4 hrs. after ligation; for % Inhibition Gastric acid output: titration to pH 7, vs control 0.5% Methocel; for % Inhibition Volume of gastric secretion: vs control 0.5% Methocel
Text: Such effect is evidenced using a modified standard pylorus-ligated secretory testing procedure in the rat. Sprague-Dawley rats, weighing 180-210 g and previously fasted for 24 hrs., were used. All compounds were given perorally as suspensions in 0.5% Methocel 1 hr. prior to pylorus ligation. Under light ether anesthesia, the rat stomach was ligated at the pylorus region. Four hrs. after ligation, the conscious rat was sacrificed by a chloroform overdose. The stomach was carefully excised and its content drained into a centrifuge tube. Samples were centrifuged to separate secretions from debris. Gastric fluid volume reading and determination of sample contamination, based on debris and sample color, was made. Titration was performed on a sample aliquot from 1 ml diluted to a volume of 5 ml using distilled water. The titrant used was 0.1 N NaOH. Total gastric acid output in the stomach was determined by titration to pH 7. A dose from 50-100 mg/kg p.o. of a compound was administered to a group of rats and its effect on the volume of gastric secretion and acid output compared to a control group receiving 0.5% Methocel p.o. The activity of each compound based on the degree of inhibition of gastric acid output is set forth in Table I.

Compound | % Inhibition Gastric acid output [%] | % Inhibition Volume of gastric secretion [%]
CNC(=O)ON=C1CCOc2ccccc21 [I, 2,3-Dihydro-4H-1-benzopyran-4-one O-(Methylcarbamoyl) oxime] | 60.4 | 34.1
CCNC(=O)ON=C1CCOc2ccc(OC)cc21 [II, 2,3-Dihydro-6-methoxy-4-H-1-benzopyran-4-one O-(Ethylcarbamoyl)-oxime] | 57.7 | 33.2
CCNC(=O)ON=C1CCOc2ccccc21 [III, 2,3-Dihydro-4-H-1-Benzopyran-4-one O-(Ethylaminocarbonyl)oxime] | 79.7 | 61.8
CNC(=O)ON=C1CCOc2ccc(OC)cc21 [IV, 2,3-Dihydro-6-methoxy-4H-1-benzopyran-4-one O-(Methylaminocarbonyl)oxime] | 45.5 | 35.3
NC(=O)ON=C1CCOc2ccccc21 [IX, 2,3-Dihydro-4H-1-benzopyran-4-one O-(Aminocarbonyl)oxime] | 77.9 | 60.5
CNC(=O)ON=C1CCOc2ccc(Cl)cc21 [V, 6-Chloro-2,3-dihydro-4H-1-benzopyran-4-one O-(Methylaminocarbonyl)oxime] | 40.0 | 55.2
CNC(=O)ON=C1CCOc2ccc(N)cc21 [VI, 6-Amino-2,3-dihydro-4H-1-benzopyran-4-one O(Methylaminocarbonyl)oxime] | 55.8 | 64.4
C=CCNC(=O)ON=C1CCOc2ccccc21 [VII, 2,3-Dihydro-4H-1-benzopyran-4-one O-[(2-Propenyl)aminocarbonyl]oxime] | 89.9 | 76.2
CCCNC(=O)ON=C1CCOc2ccccc21 [VIII, 2,3-Dihydro-4H-1-benzopyran-4-one 0-(1-Propylaminocarbonyl)oxime] | 88.1 | 73.1
